Calls of active or inactive are those of the source.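 How the source made its calls: active means compounds giving half or more protection of infected cells from virus-caused growth loss, again on retest; inactive means the rest.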
Tested on: CEM cells HIV-1 protection, formazan growth assay
Experiment: NCI AIDS Antiviral Assay
Details: for IC50: measured here: growth of uninfected CEM cells
Procedure, shortened: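 Screen of anti-HIV-1 activity in human CEM cells using a formazan-based growth measurement at five drug concentrations. Hits with 50% or greater protection were repeated, and confirmation required reproducible complete protection.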

SMILES | EC50 [µM] | IC50 [µM] | outcome
CN(C)c1ccc(C(=S)c2ccc(N(C)C)cc2)cc1 | > 200 | 0.741 | 
Nc1nc(Cl)cc(OCC2(CO)CCCC2)n1 | > 200 | 110 | 
N#Cc1ccnc(C(=O)N2CCCC2C(=O)O)c1 (configuration not stated) | > 200 | > 200 | 
CCc1n[nH]c(=O)n1/N=C/c1ccc(C)cc1 | > 200 | 158 | 
CCCCCCCCCCCCCCCC(=O)NC(Cc1ccc(O)cc1)C(=O)O (configuration not stated) | > 100 | 50.1 | 
C=C1CC(c2ccc(OCCCN3C(=O)c4ccccc4C3=O)c(OC)c2)OC1=O (configuration not stated) | > 20 | 0.912 | 
CC1CN2CC(C)OB(O1)OC(C)C2 (configuration not stated) |  |  | inactive
CN(C)C(=S)SC(=S)N(C)C | > 200 | 11 | 
O=C(Nc1ccccc1)C1CC=C2CCC3OC(=O)C1C23 (configuration not stated) | > 331 | > 331 | 
Cc1c(/C=N/N(C)C)oc2c1cc(O)c1ncccc12 | > 37.2 | 2.51 | 
CCc1nnc(CC)n1N1C(=O)CCC1=O | > 200 | > 200 | 
Cc1ccccc1Nc1nc2ccccc2nc1NS(=O)(=O)c1ccccc1 | > 200 | > 200 | 
N#CC(N=O)C(N)=O (configuration not stated) | > 200 | > 200 | 
O=C1CCSC(=O)N1c1ccccc1 | > 200 | > 200 | 
Cc1cc(O)c2c(c1)C(C13Cc4cc(O)c5c(c4[C@H]1C=C[C@@H](O)[C@H]3O)C(=O)c1cccc(O)c1C5=O)OC2=O (some centres not stated) |  |  | inactive
CCN(c1cccc(NC(=S)Nc2ccccc2N(CC)c2cc(-c3ccccc3)no2)c1)c1cc(-c2ccccc2)no1 | > 200 | > 200 | 
COc1cc2ccnc(-c3n[nH]c4cc(OC)c(OC)cc34)c2cc1OC |  |  | inactive
O=C(NCCc1c(-c2ccccc2)[nH]c2ccccc12)C(F)(F)F | > 200 | 34.7 | 
COc1cccc2c1C(=O)c1c(O)c3c(c(O)c1C2=O)C[C@@](O)(C(C)=O)CC3OC1CC(N=[N+]=[N-])C(OC)C(C)O1 (some centres not stated) |  |  | inactive
COc1ccc(OCC(=O)O)c2c1CCC(C(C)C)C2=O (configuration not stated) |  |  | inactive
CCCCCCC(=O)c1c(O)c2ccccc2oc1=O | > 200 | 29.5 | 
CC1(C)CCc2cc3c(cc2O1)OC(C)(C)CC3=O |  |  | inactive

SMILES | EC50 [µM] | IC50 [µM] | outcome
COc1ccc(/C(=C/n2ccnc2)C(O)c2ccc(OC)c(OC)c2)cc1OC (configuration not stated) | > 126 | > 126 | 
CCOC(=O)C1(c2ccccc2)CCN(CC(=O)c2ccccc2)CC1 | > 102 | 56.2 | 
NCCSSSSCCN | > 132 | 34.7 | 
OC12CCC[N+]1(Cc1ccccc1)CCC2 (configuration not stated) | > 794 | 708 | 
Cc1ccc(C2=NNc3n[nH]c(=S)n3N2)cc1 | > 75.9 | > 75.9 | 
COC(=O)/C=C/c1cnc2c(c1)oc(=O)n2C | > 200 | > 200 | 
C/C(=N\NC(=O)c1ccncc1)c1ccccc1F | > 977 | 617 | 
CC(=O)OC(C)C(=O)C1c2cccc(O)c2C(=O)c2c(O)cc(C)cc21 (configuration not stated) | > 191 | 3.24 | 
Cc1cc(C)nc(NS(=O)(=O)c2ccc(Nc3c4ccc(Cl)cc4nc4c(C(=O)NCCN(C)C)cccc34)cc2)n1 | > 214 | 89.1 | 
Cc1cn(C2CC(N=[N+]=[N-])C(COC(=O)CCCCCCCCCCBr)O2)c(=O)[nH]c1=O (configuration not stated) |  | 110 | active
CCOC(=O)C(CS)NC(=O)CCCCCCCC(=O)O (configuration not stated) | > 100 | 79.4 | 
CSc1nc2c(nc(N)n2C2OC(CO)C(O)C(O)C2O)c(=O)[nH]1 (configuration not stated) |  |  | inactive
CN(C)CC/C(=N\Nc1ccccc1)c1ccccc1 |  |  | inactive
COCn1c2ccccc2c2nc(-c3ccncc3)nc(-c3ccncc3)c21 | > 3.98 | > 3.98 | 
CC1(C)c2ccccc2-c2nc3ccccc3cc2C1N1CCOCC1 (configuration not stated) | > 200 | 41.7 | 
CC(=O)c1ccc(NC(=O)/C(Cc2ccccn2)=N/NC(=O)C[N+](C)(C)C)cc1 |  |  | inactive
O=C(O)CNS(=O)(=O)c1ccc(NC(=O)c2ccc(Cl)cc2)cc1 |  |  | inactive
CC(=O)OCC1OC(N2C(=S)N[C@H]([C@@H](O)[C@H](O)[C@H](O)CO)[C@H]2O)C(OC(C)=O)C(OC(C)=O)C1OC(C)=O (some centres not stated) | > 200 | > 200 | 
CCCCCCNC(=O)CCN(C(=O)O)S(=O)(=O)c1ccc(NC(=O)c2ccccc2)cc1 | > 380 | > 380 | 
CSc1nnc(SC)c2[nH]cnc12 | > 200 | > 200 | 
C[C@H]1CC(=O)C2=CCCC3(SCCCS3)[C@@H]2[C@H]1CO |  |  | inactive
O=C(N/N=C\c1cccnc1)c1ccncc1 | > 200 | > 200 | 

SMILES | EC50 [µM] | IC50 [µM] | outcome
O=C(CCCC[n+]1ccccc1)Sc1ccccc1C(=O)Nc1ccc(S(=O)(=O)Nc2ccccn2)cc1 | 26.9 | 115 | 
CC(NC(CC12CC3CC(CC(C3)C1)C2)C(N)=O)c1ccccc1 (configuration not stated) | > 200 | 34.7 | 
CC(=O)O[C@]12CCCC1C1(O)C(O)CCCC12 (some centres not stated) | > 200 | > 200 | 
O=C1CN=C(c2ccc[nH]2)c2cc(Cl)ccc2N1 | 2.45 | 3.98 | 
CCOC(=O)C1(CO)CSCCSC1 | > 1050 | > 1050 | 
O=C(CCc1cc(O)cc(O)c1)NCCCNC(=O)CCc1cc(O)cc(O)c1 | > 200 | > 200 | 
CC[N+]1(C)CCC(O)(c2ccc(OC)cc2)C(C(=O)c2ccc(OC)cc2)C1 (configuration not stated) | > 200 | 10.2 | 
CCOC(=O)c1no[n+]([O-])c1C(=O)OCC | > 200 | 5.75 | 
CC(=O)c1sc(-c2nc(C)c(C(=O)/C=C\c3ccc(/C=C\C(=O)c4sc(-c5nc(C)c(C(C)=O)s5)nc4C)cc3)s2)nc1C | > 28.2 | > 28.2 | 
COC(=O)/C(=N/O)C(C(=O)C=C(C)C)C(=O)C(=O)Nc1nc2ccc([N+](=O)[O-])cc2s1 (configuration not stated) | > 41.7 | 32.4 | 
NCCC(=O)NCS(=O)(=O)O | > 200 | > 200 | 
CCC[CH2][Sn]([CH2]CCC)([O]N(C)C(=O)c1ccc(Br)cc1)[O]N(C)C(=O)c1ccc(Br)cc1 | > 10.5 | 1.78 | 
C[C@@H]1[C@@H](c2ccccc2)C12C(=O)NC(=O)NC2=O | > 200 | > 200 | 
COc1cccc(-c2nc(-c3cnccn3)n(C/C=C/c3ccccc3)n2)c1 | 178 | > 200 | 
O=C(Nc1cccc(O)c1)C(=O)C1C(=O)NC(=S)NC1=O | > 813 | > 813 | 
COc1ccc(C(=C2C=CC=C2)c2ccc(OC)cc2)cc1 | > 200 | 52.5 | 
O=C(OCC(Cl)(Cl)Cl)OCC(Cl)(Cl)Cl | > 200 | > 200 | 
COc1ccc(-c2c3ccccc3c(-c3ccc(OC)cc3)c3ccccc23)cc1 | > 2.69 | > 2.69 | 
Nc1cc2c(cc1-n1cccc1)oc1ccccc12 | > 200 | 19.5 | 
COC12C[C@H]3CCC([C@H](C)c4ccc5c(c41)CC1[C@H]5C[C@@H](O)C4C[C@@H](O)CC[C@@]41C)N2C3 (some centres not stated) | > 40.7 | > 40.7 | 
O=CC12CCCN1CCC2 | > 200 | > 200 | 
CCC(CCl)NC(=O)Nc1ccc(S(=O)(=O)c2ccc([N+](=O)[O-])cc2)cc1 (configuration not stated) | > 11 | 8.71 | 

SMILES | EC50 [µM] | IC50 [µM] | outcome
C=C(CC)C[C@@H]1C[C@]2(C(=O)OC)c3[nH]c4ccccc4c3CCN2C1=O | > 200 | 36.3 | 
C/C(=N\NC(=O)CC(=O)Nc1ccccc1Cl)c1cc2cc(N=Nc3ccccc3Cl)ccc2oc1=O | > 18.6 | > 18.6 | 
COC(=O)c1cc2c(=O)n(C)c(=O)n(C)c2[nH]c1=O | > 200 | > 200 | 
Cc1cc(-c2cscn2)c(O)c([N+](=O)[O-])c1 | > 200 | 35.5 | 
CCOC(=O)c1ccc(N=[N+]([O-])c2ccc(C(=O)OCC)cc2)cc1 | > 100 | > 100 | 
O=c1[nH]c2cc([N+](=O)[O-])ccc2nc1/C(=N/Nc1ccccc1)C(O)c1ccco1 (configuration not stated) | > 234 | 89.1 | 
O=C(CCC(=O)Nc1cccc(Cl)c1)CC(=O)c1ccc(F)cc1 |  |  | inactive
O=c1[nH]c2ccccc2c(O)c1N=Nc1ccc(N=Nc2ccc(S(=O)(=O)O)cc2)cc1 | > 200 | > 200 | 
CC1=NN(C(=O)CC(=O)Nc2ccc(Cl)cc2)C(=O)C1N=Nc1ccc(C(=O)O)cc1 (configuration not stated) | > 200 | 87.1 | 
COC(=O)c1cc(C(=O)Nc2cc(C(=CCC[C@H]3CC[C@@]4(C)[C@@H](CC[C@@H]5[C@@H]4CC[C@]4(C)[C@@H](C(C)CCCC(C)C)CC[C@@H]54)C3)c3cc(NC(=O)c4ccc(OC)c(C(=O)OC)c4)c(OC)c(C(=O)OC)c3)cc(C(=O)OC)c2OC)ccc1OC (some centres not stated) | > 100 | > 100 | 
C/C(O)=C(\N=O)C(=O)Nc1ccc(Cl)cc1Cl | > 339 | 145 | 
O=C1OCCC1C(O)C1c2ccccc2-c2ccccc21 (configuration not stated) | > 339 | > 339 | 
Cc1oc2c(c1C)S(=O)(=O)C(C#N)=C(c1ccccc1)N2 | > 200 | > 200 | 
CCCCCCCCOCC(O)CO (configuration not stated) |  |  | inactive
CC(=[OH+])[CH-]C(C)=NCC(C)N=C(C)CC(C)=[OH+].[Cu+2] (configuration not stated) | > 200 | 20.9 | 
CCc1ccc([OH2+])c(C(=O)[O-])c1.CCc1ccc([OH2+])c(C(=O)[O-])c1.CCc1ccc([OH2+])c(C(=O)[O-])c1.CCc1ccc([OH2+])c(C(=O)[O-])c1.[Cu+2].[Cu+2] | > 200 | 23.4 | 
O=C(O)c1cnccc1-c1cc(=O)[nH]n1-c1ccccc1 | > 200 | 30.2 | 
NC(=O)c1ncn(C2OC(CO)C(O)C2O)c1NC=O (configuration not stated) | > 200 | > 200 | 
CC(=O)N1CCN(C=S)CC1 | > 1450 | > 1450 | 
CCN1C[C@]2(COC)CCC(OC)C34[C@@H]5C[C@@H]6C(O)[C@@H]5[C@](O)(C[C@@H]6OC)[C@@H](C[C@@H]32)[C@H]14 (some centres not stated) |  |  | inactive
Nn1c(CCCCCCCCc2nnc(COc3ccc4ccccc4c3O)n2N)nnc1COc1ccc2ccccc2c1O | > 200 | 2.45 | 
c1ccc(SC2=C(Sc3ccccc3)CC2)cc1 | > 200 | 89.1 | 

From PubChem BioAssay AID179 (DTP/NCI, 2004)
